Measurements taken from paper PMC6137088, “The Role of Outer Membrane Proteins and Lipopolysaccharides for the Sensitivity of Escherichia coli to Antimicrobial Peptides” (Frontiers in Microbiology, 2018).
Values after ≈ are worked out from the molar mass of the structure shown. Where no end group is shown, it is not given here.

What was measured:
[1] = test system: enterohemorrhagic E. coli EHEC EDL933; details: ref Thomassin et al., 2012; cited from earlier work
Text: (§1) Bacterial pathogens have evolved different mechanisms to resist the antimicrobial activity of cationic AMPs (Peschel and Sahl, [2006]). The production of proteases degrading and thereby inactivating cationic AMPs is one obvious way for bacteria to protect themselves against antimicrobials. Several omptins such as OmpT, and PgtE, all proteases found in the OM of various Gram-negative pathogens belonging to the Enterobacteriaceae family, have been associated with the degradation of AMPs (Hritonenko and Stathopoulos, [2007]). In particular, OmpT has been implicated in the proteolytic degradation ...

[2] = test system: enteropathogenic E. coli EPEC E2348/69 ΔompT; details: ref Thomassin et al., 2012; cited from earlier work
Text: as §1

[3] = test system: uropathogenic E. coli CFT073ΔompT; details: ref Brannon et al., 2013; cited from earlier work
Text: as §1

[4] = test system: E. coli BW25113 gmhA::kan; assay type: cell-based, Escherichia coli; details: Table 3; BW25113 gmhA::kan; Mueller-Hinton-II, 16–20 h; duplicates (*) or triplicates
Text: (§2) The E. coli strains 470, F632, F653 and F2513 were kindly provided by Prof. H. Brade and Prof. S. Muller-Loennies, Research Center Borstel, Leipniz-Center for Medicine and Biosciences, Germany. E. coli BW25113 (CGSC#:7636), a derivative of F^−, λ^− E. coli K12 strain BD792 is the wild-type strain which was used in the generation of the KEIO collection and ordered from the Coli Genetic Stock Centre (CGSC, Yale University). E. coli JW3596, E. coli JW3024, E. coli JW3595, E. coli JW3606, E. coli JW0212, E. coli JW1667, E. coli JW0554, E. coli JW3605 and E. coli JW3600 are isogenic mutants of waaC, waaE, waaF, waaG, gmhA (lpcA), lpp, ompT, waaP, or waaY derived from the parental strain E. coli BW25113 and were ordered from the KEIO collection (Baba et al., [2006]). E. coli ATCC25922 is a clinical isolate, serotype O6, often used as control strain in antimicrobial susceptibility testing was ordered from the ATCC strain collection. All strains were grown in Mueller-Hinton-II medium and incubation took place aerobically at 37°C for 18–20 h.
(§3) The minimum inhibitory concentrations (MICs) of the AMPs were measured in 96-well microtiter plates according the Clinical and Laboratory Standards Institute [CLSI, formerly National Committee for Clinical Laboratory Standards (NCCLS)] (Wikler et al., [2009]). Liquid Mueller-Hinton-II medium containing increasing concentrations of AMPs is inoculated with a defined number of cells (~10^5 CFUs/ml) in 96-well microtiter plates (polypropylene). Each microtiter plate includes a positive growth control and a negative control (sterile control). After incubation, the minimal inhibitory concentration (MIC) is determined by the lowest concentration showing no visible growth. All plates were incubated for 16–20 h.

[5] = test system: E. coli BW25113 ompT::kan; assay type: cell-based, Escherichia coli; details: Table 3; BW25113 ompT::kan; Mueller-Hinton-II, 16–20 h; duplicates (*) or triplicates
Text: as §2, §3

[6] = test system: E. coli BW25113 waaC::kan; assay type: cell-based, Escherichia coli; details: Table 3; BW25113 waaC::kan; Mueller-Hinton-II, 16–20 h; duplicates (*) or triplicates
Text: as §2, §3

[7] = test system: E. coli BW25113 waaE::kan; assay type: cell-based, Escherichia coli; details: Table 3; BW25113 waaE::kan; Mueller-Hinton-II, 16–20 h; duplicates (*) or triplicates
Text: as §2, §3

[8] = test system: E. coli BW25113 waaF::kan; assay type: cell-based, Escherichia coli; details: Table 3; BW25113 waaF::kan; Mueller-Hinton-II, 16–20 h; duplicates (*) or triplicates
Text: as §2, §3

[9] = test system: E. coli BW25113 waaG::kan; assay type: cell-based, Escherichia coli; details: Table 3; BW25113 waaG::kan; Mueller-Hinton-II, 16–20 h; duplicates (*) or triplicates
Text: as §2, §3

[10] = test system: E. coli BW25113 waaP::kan; assay type: cell-based, Escherichia coli; details: Table 3; BW25113 waaP::kan; Mueller-Hinton-II, 16–20 h; duplicates (*) or triplicates
Text: as §2, §3

[11] = test system: E. coli BW25113 waaY::kan; assay type: cell-based, Escherichia coli; details: Table 3, Mueller-Hinton-II, 16–20 h, duplicates (*) or triplicates
Text: as §2, §3

E. coli BW25113 = assay type: cell-based, Escherichia coli; details: for MIC: Table 3, E. coli BW25113 wild type, Mueller-Hinton-II, ~10^5 CFUs/ml, 16–20 h, duplicates (*) or triplicates
Text: as §2, §3

E. coli F2513 (R4) = assay type: cell-based, Escherichia coli; details: Table 4; E. coli F2513 (R4 prototype, rough LPS); triplicates
Text: as §2, §3

E. coli F470 (R1) = assay type: cell-based, Escherichia coli; details: Table 4; E. coli F470 (R1 prototype, rough LPS); triplicates
Text: as §2, §3

E. coli F632 (R2) = assay type: cell-based, Escherichia coli; details: Table 4; E. coli F632 (R2 prototype, rough LPS); triplicates
Text: as §2, §3

E. coli F653 (R3) = assay type: cell-based, Escherichia coli; details: Table 4; E. coli F653 (R3 prototype, rough LPS); triplicates
Text: as §2, §3

[12] = test system: E. coli strains representing core types K12, R1, R2, R3, R4 and ATCC25922; assay type: cell-based, Escherichia coli; details: span over isolates and core types of Table 4
Text: as §2, §3

E. coli ATCC25922 ΔwaaC = assay type: cell-based, Escherichia coli; details: Table 6, triplicates
Text: as §2, §3

E. coli ATCC25922 ΔwaaE = assay type: cell-based, Escherichia coli; details: Table 6, triplicates
Text: as §2, §3

E. coli ATCC25922 ΔwaaF = assay type: cell-based, Escherichia coli; details: Table 6, triplicates
Text: as §2, §3

E. coli ATCC25922 ΔwaaG = assay type: cell-based, Escherichia coli; details: Table 6, triplicates
Text: as §2, §3

E. coli ATCC25922 = assay type: cell-based, Escherichia coli; details: Table 6; E. coli ATCC25922 wild-type; triplicates
Text: as §2, §3

S. typhimurium LT2 = assay: MIC testing (CLSI broth microdilution); assay type: cell-based; details: Table 6, triplicates
Method: as §3

Y. ruckeri 392/2003 = assay: MIC testing (CLSI broth microdilution); assay type: cell-based; details: Table 6, triplicates
Method: as §3

Molecule	MIC [4]	MIC [5]	MIC [6] [µg/mL]	MIC [7] [µg/mL]	MIC [8] [µg/mL]	MIC [9] [µg/mL]	MIC [10] [µg/mL]	MIC [11] [µg/mL]	MIC (E. coli BW25113) [µg/mL]	Antimicrobial activity (MIC) (E. coli F2513 (R4)) [µg/mL]	Antimicrobial activity (MIC) (E. coli F470 (R1)) [µg/mL]	Antimicrobial activity (MIC) (E. coli F632 (R2)) [µg/mL]	Antimicrobial activity (MIC) (E. coli F653 (R3)) [µg/mL]	MIC over all the tested E. coli strains [12] [µg/mL]	also measured
LL-37	–	–	–	–	–	–	–	–	–	–	–	–	–	–	decrease of MIC by loss of OmpT in EHEC EDL933 (factor) [1]: 2; decrease in MIC in the ΔompT mutant compared to parental EPEC E2348/69 (factor) [2]: unchanged; change of MIC in CFT073ΔompT compared to wild-type CFT073 [3]: unchanged
CC[C@H](C)[C@H](NC(=O)CN)C(=O)NCC(=O)N[C@@H](C)C(=O)N[C@H](C(=O)N[C@@H](CC(C)C)C(=O)N[C@@H](CCCCN)C(=O)N[C@H](C(=O)N[C@@H](CC(C)C)C(=O)N[C@H](C(=O)N[C@H](C(=O)NCC(=O)N[C@@H](CC(C)C)C(=O)N1CCC[C@H]1C(=O)N[C@@H](C)C(=O)N[C@@H](CC(C)C)C(=O)N[C@H](C(=O)N[C@@H](CO)C(=O)N[C@@H](Cc1c[nH]c2ccccc12)C(=O)N[C@H](C(=O)N[C@@H](CCCCN)C(=O)N[C@@H](CCCNC(=N)N)C(=O)N[C@@H](CCCCN)C(=O)N[C@@H](CCCNC(=N)N)C(=O)N[C@@H](CCC(N)=O)C(=O)N[C@@H](CCC(N)=O)C(N)=O)[C@@H](C)CC)[C@@H](C)CC)[C@@H](C)O)[C@@H](C)O)C(C)C)C(C)C [Melittin]	2 ^* μg/ml	32 ^* μg/ml	4 (≈ 1.41 µM)	4 (≈ 1.41 µM)	4 (≈ 1.41 µM)	4 (≈ 1.41 µM)	4 (≈ 1.41 µM)	16 to 32	16 to 32	4	16	32	32	4 to 32	–
GLRKRLRKFRNKIKEKLKKIGQKIQGLLPKLAPRTDY [Cap18]	4 to 8 µg/mL	4 to 8 µg/mL	4	4	4	4	4 to 8	4 to 8	4 to 8	2 to 4	4	4	4 to 8	4 to 8	Antimicrobial activity: MIC (E. coli ATCC25922 ΔwaaC): 2 to 4 µg/mL; Antimicrobial activity: MIC (E. coli ATCC25922 ΔwaaE): 4 µg/mL; Antimicrobial activity: MIC (E. coli ATCC25922 ΔwaaF): 2 to 4 µg/mL; Antimicrobial activity: MIC (E. coli ATCC25922 ΔwaaG): 4 µg/mL; Antimicrobial activity: MIC (E. coli ATCC25922): 4 to 8 µg/mL; Antimicrobial activity (MIC) (E. coli BW25113; Table 4, E. coli BW25113 (K12 core type), triplicates): 4 to 8 µg/mL; Antimicrobial activity: MIC (S. typhimurium LT2): 4 to 8 µg/mL; Antimicrobial activity: MIC (Y. ruckeri 392/2003): 2 to 4 µg/mL
